The results in this text go back to patent US20090069320A1, “Substituted 4-Amino-Quinazoline Compounds with Metabotropic Glutamate Receptor Regulating Activity and Uses Thereof” (Gruenenthal GmbH, priority 2006, published 2009).

Structures can show the parent of a compound that is named as a salt.

For one test, the target named is T1, mGluR5 receptor (Sus scrofa, UniProt I3LUI7).
T1 construct: 450 μg of protein from brain homogenate with 5 nM ^3[H]-MPEP; from tissue; host or cells: pig brain halves without medulla, cerebellum and pons
T1 sequence (I3LUI7 19-1212): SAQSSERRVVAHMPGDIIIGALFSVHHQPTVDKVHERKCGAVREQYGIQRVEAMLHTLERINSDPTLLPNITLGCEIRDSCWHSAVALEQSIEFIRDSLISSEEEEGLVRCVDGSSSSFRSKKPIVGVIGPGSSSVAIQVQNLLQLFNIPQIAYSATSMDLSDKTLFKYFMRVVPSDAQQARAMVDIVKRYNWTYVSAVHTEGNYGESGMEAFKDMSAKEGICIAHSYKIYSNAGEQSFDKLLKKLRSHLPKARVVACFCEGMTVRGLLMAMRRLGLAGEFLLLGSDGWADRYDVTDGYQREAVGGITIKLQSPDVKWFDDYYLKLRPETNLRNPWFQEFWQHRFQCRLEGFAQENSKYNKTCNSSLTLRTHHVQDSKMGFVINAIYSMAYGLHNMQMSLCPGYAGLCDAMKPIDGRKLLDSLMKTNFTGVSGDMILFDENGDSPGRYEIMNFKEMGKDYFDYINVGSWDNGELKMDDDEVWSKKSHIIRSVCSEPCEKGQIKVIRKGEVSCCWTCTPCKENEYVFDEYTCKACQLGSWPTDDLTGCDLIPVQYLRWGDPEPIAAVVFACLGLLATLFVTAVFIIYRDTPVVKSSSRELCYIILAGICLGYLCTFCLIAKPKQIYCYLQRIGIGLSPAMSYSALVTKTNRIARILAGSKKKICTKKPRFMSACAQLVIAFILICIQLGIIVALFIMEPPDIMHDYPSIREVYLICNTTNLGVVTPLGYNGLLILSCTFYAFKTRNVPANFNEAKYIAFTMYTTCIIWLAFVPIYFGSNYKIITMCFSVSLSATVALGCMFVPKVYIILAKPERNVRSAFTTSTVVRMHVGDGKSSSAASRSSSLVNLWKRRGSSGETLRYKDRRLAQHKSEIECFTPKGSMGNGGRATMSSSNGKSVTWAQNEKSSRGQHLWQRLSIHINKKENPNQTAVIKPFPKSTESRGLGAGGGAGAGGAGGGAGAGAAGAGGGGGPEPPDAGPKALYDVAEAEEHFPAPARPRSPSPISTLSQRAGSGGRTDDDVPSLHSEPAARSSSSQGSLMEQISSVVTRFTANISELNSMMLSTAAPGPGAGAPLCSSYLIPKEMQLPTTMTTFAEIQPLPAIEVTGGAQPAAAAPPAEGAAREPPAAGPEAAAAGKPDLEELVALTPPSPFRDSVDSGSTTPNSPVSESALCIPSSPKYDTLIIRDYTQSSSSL
As to the kind of experiment: [3H]-MPEP mGluR5 receptor binding assay (pig brain homogenate). The settings on record: 5 nM [3H]-MPEP, read-out: IC50 mGluR5 Receptor (pig) [^3H]-MPEP Bond. On the procedure: I. Method for Determining the Inhibition of the [^3H]-MPEP Bond in the mGluR5 Receptor Binding Assay
Pig brain homogenate is produced by homogenizing (Polytron PT 3000, Kinematica AG, 10 000 rpm for 90 seconds) pig brain halves without medulla, cerebellum and pons in pH 8.0 buffer (20 mM Hepes, Sigma, order no. H3375+1 complete tablet, 100 ml, Roche Diagnostics, order no. 1836145) in the ratio of 1:20 (brain weight/volume) and differential centrifuging at 900×g and 40 000×g. In incubation batches of 250 μl in 96-well microtitre plates 450 μg of protein from brain homogenate with 5 nM ^3[H]-MPEP (Tocris, order no. R1212) (MPEP=[…]) and the compounds to be examined (10 μM in test) in buffer (as above) are respectively incubated at room temperature for 60 minutes.
The batches are then filtered using a Brandel cell harvester (Brandel, Robotic 9600) on unifilter plates with fibreglass filter mats (Perkin Elmer, order no. 6005177) and then washed with buffer (as above) 3-times each with 250 μl per sample. The filter plates are then dried for 60 mins. at 55° C. Then, 30 μL of Ultima Gold™ scintillator (Packard BioScience, order no. 6013159) are added per well and after 3 hours the samples are measured on the β-counter (MicroBeta, Perkin Elmer). The non-specific binding is determined by adding 10 μM of MPEP (Tocris, order no. 1212).
Broadly, the IC50 is the concentration that inhibits the measured activity by half. Take `COc1cc2ncnc(NC3CC3)c2cc1-c1cccc(CN2C(=O)CCC2=O)c1` [Example 899, 1-(3-(4-(cyclopropylamino)-7-methoxyquinazolin-6-yl)benzyl)pyrrolidine-2,5-dione]: the IC50 is 160 nM.
Still for that read-out and setting: the result for `O=C1COCC(=O)N1Cc1cccc(-c2ccc3ncnc(NC4CC4)c3c2)c1` [Example 212, 4-(3-(4-(cyclopropylamino)quinazolin-6-yl)benzyl)morpholine-3,5-dione] reads 100 nM; that for `CC(=O)N(Cc1cccc(-c2cc(F)c3ncnc(NC4CC4)c3c2)c1)C1CC1` [Example 716, N-cyclopropyl-N-(3-(4-(cyclopropylamino)-8-fluoroquinazolin-6-yl)benzyl)acetamide], 120 nM.
Same read-out and setting: in the case of `CC(=O)N(Cc1ccc(-c2ccc3ncnc(NC4CC4)c3c2)o1)C1CC1` [Example 232, N-cyclopropyl-N-[5-(4-cyclopropylamino-quinazolin-6-yl)-furan-2-yl-methyl]-acetamide] it was 4270 nM; in that of `O=C1CC(c2ccccc2)C(=O)N1Cc1cccc(-c2ccc3ncnc(NC4CC4)c3c2)c1` (stereo not shown) [Example 229, 1-[3-(4-cyclopropylamino-quinazolin-6-yl)-benzyl]-3-phenyl-pyrrolidine-2,5-dione; hydrochloride], 3500 nM; in that of `COC(=O)N(Cc1cccc(-c2ccc3ncnc(NC4CC4)c3c2)c1)C1CC1` [Example 898, methyl cyclopropyl(3-(4-(cyclopropylamino)quinazolin-6-yl)benzyl)carbamate], 90 nM.
Same read-out and setting: in the case of `CC(c1cccc(-c2ccc3ncnc(NC4CC4)c3c2)c1)N(C1CC1)S(C)(=O)=O` (stereo not shown) [Example 231, N-cyclopropyl-N-(1-(3-(4-(cyclopropylamino)quinazolin-6-yl)phenyl)ethyl)methane sulfonamide] it was 5720 nM.

The test is the same for the next values; noted with them: 10 μM compound, 5 nM [3H]-MPEP.
Regarding `O=S(=O)(c1ccc(Cl)cc1Cl)N(Cc1cc(-c2ccc3ncnc(NC4CC4)c3c2)ccc1Cl)C1CC1` [Example 794, 2,4-dichloro-N-(2-chloro-5-(4-(cyclopropylamino)quinazolin-6-yl)benzyl)-N-cyclopropyl benzole sulfonamide], the “% Inhibition of mGluR5 Receptor (pig) [^3H]-MPEP Bond at 10 μM” value amounted to 93%.
The same measure, in the same setting: the result for `Cc1cc2ncnc(NC3CC3)c2cc1-c1cccc(CN(C2CC2)S(=O)(=O)c2ccc(Cl)cc2Cl)c1` [Example 667, 2,4-dichloro-N-cyclopropyl-N-(3-(4-(cyclopropylamino)-7-methylquinazolin-6-yl)benzyl)benzole sulfonamide] reads 40%.
As for `CC(=O)N(Cc1cc(-c2ccc3ncnc(NC(C)(C)C)c3c2)ccc1F)C1CC1` [Example 844, N-(5-(4-(tert-butylamino)quinazolin-6-yl)-2-fluorobenzyl)-N-cyclopropyl acetamide], the “% Inhibition of mGluR5 Receptor (pig) [^3H]-MPEP Bond at 10 μM” value is reported as 94%.

The test is the same for the next values; noted with them: 10 μM compound, 5 nM [3H]-MPEP, read-out: % Inhibition of mGluR5 Receptor (pig) [^3H]-MPEP Bond at 10 μM.
By inhibition is commonly meant the percentage by which the read-out fell short of the control. As for `O=C(c1cccs1)N(Cc1cc(-c2ccc3ncnc(NC4CC4)c3c2)ccc1Cl)C1CC1` [Example 754, N-(2-chloro-5-(4-(cyclopropylamino)quinazolin-6-yl)benzyl)-N-cyclopropylthiophene-2-carboxamide], the inhibition at 10 µM is 95%.
Same read-out and setting: the result for `COC(=O)CN(Cc1cccc(-c2ccc3ncnc(NC4CC4)c3c2)c1)C(=O)CC#N` [Example 190, methyl 2-(2-cyano-N-(3-(4-(cyclopropylamino)quinazolin-6-yl)benzyl)acetamido)acetate] reads 58%; that for `NC1(C(=O)NCc2cccc(-c3ccc4ncnc(NC5CC5)c4c3)c2)CC1` [Example 869, 1-amino-N-(3-(4-(cyclopropylamino)quinazolin-6-yl)benzyl)cyclopropane carboxamide dihydrochloride], 65%; that for `CN(Cc1cccc(-c2ccc3ncnc(NC4CC4)c3c2)c1)c1ccccn1` [Example 878, N-cyclopropyl-6-(3-((methyl(pyridin-2-yl)amino)methyl)phenyl)quinazoline-4-amine], 56%.
For the molecule `c1cc(CNCc2ccco2)cc(-c2ccc3ncnc(NC4CC4)c3c2)c1` [Example 312, N-cyclopropyl-6-(3-((furan-2-ylmethylamino)methyl)phenyl)quinazoline-4-amine dihydrochloride], the inhibition at 10 µM was 58%.
The same measure, in the same setting: in the case of `CC(C)(C)Nc1ncnc2ccc(-c3ccc(F)c(CN(C(=O)c4cccc(F)c4)C4CC4)c3)cc12` [Example 849, N-(5-(4-(tert-butylamino)quinazolin-6-yl)-2-fluorobenzyl)-N-cyclopropyl-3-fluorobenzamide] it was 86%.
In the case of `CCCCC(=O)N(Cc1cccc(-c2ccc3ncnc(NCCc4ccccc4)c3c2)c1)C1CC1` [Example 409, N-cyclopropyl-N-(3-(4-(phenethylamino)quinazolin-6-yl)benzyl)pentanamide], the inhibition at 10 µM is 32%.
Same read-out and setting: the result for `CC(C)Nc1ncnc2ccc(-c3cccc(CN(Cc4ccccc4)C(=O)c4ccccc4Cl)c3)cc12` [Example 150, N-benzyl-2-chloro-N-[3-(4-isopropylamino-quinazolin-6-yl)-benzyl]-benzamide] reads 40%; that for `O=C(c1ccc(Br)s1)N(Cc1cccc(-c2ccc3ncnc(NC4CC4)c3c2)c1)C1CC1` [Example 166, 5-bromo-thiophene-2-carboxylic acid cyclopropyl-[3-(4-cyclopropylamino-quinazolin-6-yl)-benzyl]-amide], 86%.
As for `CC(C)(C)C(=O)N(Cc1cc(-c2ccc3ncnc(NC4CC4)c3c2)ccc1F)C1CC1` [Example 645, N-cyclopropyl-N-(5-(4-(cyclopropylamino)quinazolin-6-yl)-2-fluorobenzyl)pivalamide], the inhibition at 10 µM amounted to 90%.
Same read-out and setting: the result for `CCCN(Cc1cccc(-c2ccc3ncnc(Nc4ccccc4)c3c2)c1)C(=O)c1ccc(C)cc1` [Example 91, 4-methyl-N-[3-(4-phenylamino-quinazolin-6-yl)-benzyl]-N-propyl-benzamide] reads 54%; that for `CCCN(Cc1cccc(-c2ccc3ncnc(Nc4ccccc4)c3c2)c1)C(=O)c1ccncc1` [Example 92, N-[3-(4-phenylamino-quinazolin-6-yl)-benzyl]-N-propyl-isonicotinamide], 74%.
Same read-out and setting: the result for `Cc1cc2ncnc(NC3CC3)c2cc1-c1cccc(CN(C(=O)c2ccccn2)C2CC2)c1` [Example 699, N-cyclopropyl-N-(3-(4-(cyclopropylamino)-7-methylquinazolin-6-yl)benzyl)picolinamide] reads 90%; that for `O=C(c1ccc(F)cc1F)N(Cc1cc(-c2ccc3ncnc(NC4CC4)c3c2)ccn1)C1CC1` [Example 817, N-cyclopropyl-N-((4-(4-(cyclopropylamino)quinazolin-6-yl)pyridin-2-yl)methyl)-2,4-difluorobenzamide], 71%.
On the same count and under the same terms, the result for `Cc1nc(NC2CC2)c2cc(-c3cccc(CN(C(=O)c4c(F)c(F)c(F)c(F)c4F)C4CC4)c3)ccc2n1` [Example 447, N-cyclopropyl-N-(3-(4-(cyclopropylamino)-2-methylquinazolin-6-yl)benzyl)-2,3,4,5,6-pentafluorobenzamide] reads 85%; that for `CC(=O)N(Cc1cc(-c2ccc3ncnc(NC4CC4)c3c2)ccn1)C1CC1` [Example 773, N-cyclopropyl-N-((4-(4-(cyclopropylamino)quinazolin-6-yl)pyridin-2-yl)methyl)acetamide], 74%; that for `Cc1cc2ncnc(NC3CC3)c2cc1-c1cccc(CN(C2CC2)S(=O)(=O)c2cccc3cccnc23)c1` [Example 683, N-cyclopropyl-N-(3-(4-(cyclopropylamino)-7-methylquinazolin-6-yl)benzyl)quinoline-8-sulfonamide], 31%.
As to `CN(C)CC(=O)N(Cc1cc(-c2ccc3ncnc(NC(C)(C)C)c3c2)ccc1F)C1CC1` [Example 861, N-(5-(4-(tert-butylamino)quinazolin-6-yl)-2-fluorobenzyl)-N-cyclopropyl-2-(dimethylamino)acetamide], the inhibition at 10 µM stood at 55%.
The same measure, in the same setting: in the case of `Cc1nc(C(=O)N(Cc2cc(-c3ccc4ncnc(NC5CC5)c4c3)ccc2F)C2CC2)cs1` [Example 605, N-cyclopropyl-N-(5-(4-(cyclopropylamino)quinazolin-6-yl)-2-fluorobenzyl)-2-methylthiazole-4-carboxamide] it was 94%; in that of `CC(=O)N(Cc1cccc(-c2ccc3ncnc(NC4CC4)c3c2)c1)C1CCCC1` [Example 209, N-cyclopentyl-N-(3-(4-(cyclopropylamino)quinazolin-6-yl)benzyl)acetamide], 63%.
On the same count and under the same terms, the result for `CN(C)CC(=O)N(Cc1cc(-c2ccc3ncnc(NC4CC4)c3c2)ccn1)C1CC1` [Example 739, N-cyclopropyl-N-((4-(4-(cyclopropylamino)quinazolin-6-yl)pyridin-2-yl)methyl)-2-(dimethylamino)acetamide] reads 47%.
